The values below come from ChEMBL document CHEMBL2396549, “The discovery of BMS-457, a potent and selective CCR1 antagonist” (Bioorg Med Chem Lett, 2013).

Active and inactive are the calls of the source. The rule behind the calls is not given here.

The EC50 is the midpoint of the concentration-response curve. In general, IC50 refers to the concentration that gives 50% inhibition. In general, inhibition refers to the drop in the measured response relative to a control, in per cent. For orientation: EC20 means the point of the concentration-response curve where the effect stands at 20%. By bioavailability is commonly meant the share of a dose that reaches the circulation, judged against a reference dose that is usually intravenous. For orientation: fraction unbound means the share of the substance not bound to proteins or other matrix.

Data set [1] is described as follows: Metabolic stability in monkey liver microsomes assessed as compound remaining. Format: ADME, Macaca mulatta, Microsome. As to conditions: rhesus monkey.
The test system of data set [2] is Liver microsomes. Briefly: Metabolic stability in rat liver microsomes assessed as compound remaining. Format: ADME, Microsome.
The test system of a further data set is Liver. The experiment in a line: Metabolic stability in mouse liver microsomes assessed as compound remaining. Format: ADME, Microsome. For orientation: Microsomes from liver hold many membrane-bound enzymes, among them those of drug oxidation.
Data set [3] has as its system Liver microsomes. Briefly: Metabolic stability in human liver microsomes assessed as compound remaining. Format: ADME, Microsome.
The target in data set [4] is T1, Nuclear receptor subfamily 1 group I member 2 (Homo sapiens, UniProt O75469).
T1 sequence (O75469 whole entry): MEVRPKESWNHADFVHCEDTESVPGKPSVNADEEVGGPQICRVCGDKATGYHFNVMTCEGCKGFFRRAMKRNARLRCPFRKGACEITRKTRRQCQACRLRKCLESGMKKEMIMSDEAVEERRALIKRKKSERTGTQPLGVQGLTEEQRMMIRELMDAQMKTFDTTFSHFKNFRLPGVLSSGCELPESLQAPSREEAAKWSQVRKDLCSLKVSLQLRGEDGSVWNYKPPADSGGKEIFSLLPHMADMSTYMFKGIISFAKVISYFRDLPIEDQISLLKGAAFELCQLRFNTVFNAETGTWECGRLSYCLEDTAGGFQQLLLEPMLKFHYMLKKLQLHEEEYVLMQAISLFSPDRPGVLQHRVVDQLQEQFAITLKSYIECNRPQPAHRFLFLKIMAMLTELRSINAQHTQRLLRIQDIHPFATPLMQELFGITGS
The experiment in a line: Induction of PXR (unknown origin). As to conditions: for EC20 / EC60: human.

The nature of data set [5]: (§1) Inhibition of calcium channel (unknown origin). The arrangement: species or system Homo sapiens.
The nature of data set [6]: (§2) Inhibition of sodium channel (unknown origin). Set-up: species or system Homo sapiens.
Data set [7] addresses T2, C-C chemokine receptor type 1 (Homo sapiens, UniProt P32246).
T2 sequence (P32246 whole entry): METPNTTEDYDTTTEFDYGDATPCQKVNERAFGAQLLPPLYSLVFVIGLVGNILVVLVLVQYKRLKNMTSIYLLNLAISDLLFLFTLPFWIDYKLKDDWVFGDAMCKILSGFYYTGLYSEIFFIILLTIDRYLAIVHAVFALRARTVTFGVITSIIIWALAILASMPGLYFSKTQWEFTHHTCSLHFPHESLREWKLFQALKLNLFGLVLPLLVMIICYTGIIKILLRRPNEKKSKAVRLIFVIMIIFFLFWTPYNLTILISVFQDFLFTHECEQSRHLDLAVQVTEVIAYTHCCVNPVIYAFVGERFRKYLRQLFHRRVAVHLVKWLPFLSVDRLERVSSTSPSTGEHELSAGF
Briefly: Binding affinity to human CCR1.

The nature of data set [8]: Antagonist activity at human CCR1 assessed as inhibition of MIP1alpha-induced chemotaxis.
The target of data set [9] is T2, C-C chemokine receptor type 1. The experiment in a line: Antagonist activity at human CCR1 assessed as inhibition of MIP1alpha-induced chemotaxis.
Data set [10] is filed under the species Homo sapiens. Briefly: Inhibition of calcium channel (unknown origin) at 10 uM.
The species named for data set [11] is Homo sapiens. Briefly: Inhibition of sodium channel (unknown origin) at 10 uM.
In a further data set the target is hERG (KCNH2) (Homo sapiens, UniProt Q12809). Briefly: Inhibition of human ERG at 10 uM by patch clamp assay. In general terms: The patch-clamp technique gives a direct electrical read-out from membranes.
hERG (KCNH2), sequence (Q12809 whole entry): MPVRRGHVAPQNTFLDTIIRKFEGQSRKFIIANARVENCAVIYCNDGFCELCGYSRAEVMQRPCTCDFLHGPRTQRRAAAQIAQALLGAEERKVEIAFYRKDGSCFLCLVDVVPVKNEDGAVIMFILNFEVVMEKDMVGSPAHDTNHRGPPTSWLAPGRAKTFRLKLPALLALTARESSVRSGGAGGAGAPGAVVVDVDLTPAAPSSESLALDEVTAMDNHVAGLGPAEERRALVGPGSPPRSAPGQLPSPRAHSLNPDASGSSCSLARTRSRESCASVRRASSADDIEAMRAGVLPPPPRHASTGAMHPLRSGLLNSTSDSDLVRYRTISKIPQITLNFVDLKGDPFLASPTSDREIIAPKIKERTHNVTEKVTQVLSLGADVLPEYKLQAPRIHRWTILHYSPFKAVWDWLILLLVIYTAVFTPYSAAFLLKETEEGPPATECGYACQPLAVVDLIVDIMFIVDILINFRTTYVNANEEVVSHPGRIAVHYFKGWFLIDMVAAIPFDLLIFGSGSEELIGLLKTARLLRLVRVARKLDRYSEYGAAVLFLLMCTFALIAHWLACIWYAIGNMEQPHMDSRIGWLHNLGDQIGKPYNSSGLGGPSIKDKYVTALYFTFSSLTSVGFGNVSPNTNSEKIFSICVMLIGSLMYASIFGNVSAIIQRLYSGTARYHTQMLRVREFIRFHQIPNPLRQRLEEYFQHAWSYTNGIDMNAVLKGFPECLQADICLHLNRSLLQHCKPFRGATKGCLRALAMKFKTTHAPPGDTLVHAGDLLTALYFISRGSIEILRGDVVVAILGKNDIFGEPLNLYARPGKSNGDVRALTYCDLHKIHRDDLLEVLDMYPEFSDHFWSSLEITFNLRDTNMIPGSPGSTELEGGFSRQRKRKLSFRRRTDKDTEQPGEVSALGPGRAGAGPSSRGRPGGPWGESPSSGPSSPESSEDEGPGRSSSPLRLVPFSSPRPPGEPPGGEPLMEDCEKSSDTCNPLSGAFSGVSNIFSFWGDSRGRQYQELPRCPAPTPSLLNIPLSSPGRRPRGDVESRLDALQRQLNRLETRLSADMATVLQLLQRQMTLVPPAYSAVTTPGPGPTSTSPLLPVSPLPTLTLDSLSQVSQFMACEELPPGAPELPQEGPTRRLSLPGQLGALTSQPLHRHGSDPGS
The nature of data set [12]: Oral bioavailability in cynomolgus monkey at 2 mg/kg. It counts as ADME, organism-based, Macaca fascicularis. As to conditions: in vivo.
The species entered for data set [13] is Homo sapiens. The description is as §1.
The nature of data set [14]: Oral bioavailability in mouse at 9 mg/kg. Format: ADME, organism-based. As to conditions: in vivo.
For data set [15], the species on record is Homo sapiens. The data set is described as §2.
Data set [16] has as its target Voltage-gated inwardly rectifying potassium channel KCNH2 (Homo sapiens, UniProt Q12809). The experiment in a line: Inhibition of human ERG by patch clamp assay.
A further data set addresses Cytochrome P450 3A4 (Homo sapiens, UniProt P08684). Briefly: Inhibition of CYP3A4 (unknown origin). Format: ADME.
A further data set has as its target Cytochrome P450 2C9 (Homo sapiens, UniProt P11712). The experiment in a line: Inhibition of CYP2C9 (unknown origin). Format: ADME.
The next data set concerns the target Cytochrome P450 2D6 (Homo sapiens, UniProt P10635). Briefly: Inhibition of CYP2D6 (unknown origin). It counts as ADME.
The target in a further data set is Cytochrome P450 2C19 (Homo sapiens, UniProt P33261). The experiment in a line: Inhibition of CYP2C19 (unknown origin). Format: ADME.
Cytochrome P450 2C19, sequence (P33261 whole entry): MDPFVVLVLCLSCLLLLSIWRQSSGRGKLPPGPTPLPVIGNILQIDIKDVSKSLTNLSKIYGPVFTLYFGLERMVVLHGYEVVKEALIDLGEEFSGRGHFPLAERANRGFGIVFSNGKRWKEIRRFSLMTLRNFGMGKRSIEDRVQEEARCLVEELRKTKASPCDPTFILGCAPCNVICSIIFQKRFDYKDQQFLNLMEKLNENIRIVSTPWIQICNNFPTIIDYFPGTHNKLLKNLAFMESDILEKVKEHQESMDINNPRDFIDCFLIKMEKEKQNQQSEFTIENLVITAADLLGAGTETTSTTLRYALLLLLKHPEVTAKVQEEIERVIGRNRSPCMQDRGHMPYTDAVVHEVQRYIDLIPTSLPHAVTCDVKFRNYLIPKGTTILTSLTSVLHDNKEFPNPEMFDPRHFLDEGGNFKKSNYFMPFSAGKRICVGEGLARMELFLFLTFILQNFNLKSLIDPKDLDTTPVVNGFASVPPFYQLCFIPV
For a further data set, the target named is T3, Cytochrome P450 1A2 (Homo sapiens, UniProt P05177).
T3 sequence (P05177 whole entry): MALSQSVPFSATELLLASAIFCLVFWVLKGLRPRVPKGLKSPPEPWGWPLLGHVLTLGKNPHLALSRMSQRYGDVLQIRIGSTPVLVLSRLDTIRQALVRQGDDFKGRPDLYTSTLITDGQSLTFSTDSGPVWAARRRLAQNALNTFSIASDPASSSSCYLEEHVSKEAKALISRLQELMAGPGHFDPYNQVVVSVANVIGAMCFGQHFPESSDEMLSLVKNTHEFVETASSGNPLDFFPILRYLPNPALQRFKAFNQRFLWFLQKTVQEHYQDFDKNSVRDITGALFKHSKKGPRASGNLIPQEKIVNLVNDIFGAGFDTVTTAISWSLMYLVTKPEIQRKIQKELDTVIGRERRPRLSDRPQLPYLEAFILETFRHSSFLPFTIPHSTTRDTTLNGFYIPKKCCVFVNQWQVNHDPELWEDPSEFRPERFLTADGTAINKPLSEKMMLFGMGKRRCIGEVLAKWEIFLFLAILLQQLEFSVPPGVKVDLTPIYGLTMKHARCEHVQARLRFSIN
Briefly: Inhibition of CYP1A2 (unknown origin). Format: ADME.

The target of data set [17] is T2, C-C chemokine receptor type 1. The experiment in a line: Antagonist activity at CCR1 in whole blood (unknown origin) assessed as inhibition of LKN1-induced upregulation of beta2-integrin CD11b.
For data set [18] the target is unchanged. The experiment in a line: Antagonist activity at CCR1 in whole blood (unknown origin) assessed as inhibition of MIP1alpha-induced upregulation of beta2-integrin CD11b.
Data set [19] is described as follows: Fraction unbound in human serum. Format: ADME, cell-free.

Cytochrome P450 2C9, sequence (P11712 whole entry): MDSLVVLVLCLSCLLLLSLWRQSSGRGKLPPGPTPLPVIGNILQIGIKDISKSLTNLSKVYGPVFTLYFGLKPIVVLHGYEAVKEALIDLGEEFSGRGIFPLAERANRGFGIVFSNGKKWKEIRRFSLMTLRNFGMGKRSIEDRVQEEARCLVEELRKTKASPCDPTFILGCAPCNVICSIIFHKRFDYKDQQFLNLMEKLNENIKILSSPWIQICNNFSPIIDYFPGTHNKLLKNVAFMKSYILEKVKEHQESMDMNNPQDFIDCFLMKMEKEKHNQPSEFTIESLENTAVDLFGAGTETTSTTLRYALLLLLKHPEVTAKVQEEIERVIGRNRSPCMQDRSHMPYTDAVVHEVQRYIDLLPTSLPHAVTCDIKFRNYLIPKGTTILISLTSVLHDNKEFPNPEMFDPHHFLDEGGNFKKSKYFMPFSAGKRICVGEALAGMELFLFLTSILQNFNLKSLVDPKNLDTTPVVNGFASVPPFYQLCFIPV
Voltage-gated inwardly rectifying potassium channel KCNH2, sequence (Q12809 whole entry): as the sequence (Q12809 whole entry) above
Cytochrome P450 2D6, sequence (P10635 whole entry): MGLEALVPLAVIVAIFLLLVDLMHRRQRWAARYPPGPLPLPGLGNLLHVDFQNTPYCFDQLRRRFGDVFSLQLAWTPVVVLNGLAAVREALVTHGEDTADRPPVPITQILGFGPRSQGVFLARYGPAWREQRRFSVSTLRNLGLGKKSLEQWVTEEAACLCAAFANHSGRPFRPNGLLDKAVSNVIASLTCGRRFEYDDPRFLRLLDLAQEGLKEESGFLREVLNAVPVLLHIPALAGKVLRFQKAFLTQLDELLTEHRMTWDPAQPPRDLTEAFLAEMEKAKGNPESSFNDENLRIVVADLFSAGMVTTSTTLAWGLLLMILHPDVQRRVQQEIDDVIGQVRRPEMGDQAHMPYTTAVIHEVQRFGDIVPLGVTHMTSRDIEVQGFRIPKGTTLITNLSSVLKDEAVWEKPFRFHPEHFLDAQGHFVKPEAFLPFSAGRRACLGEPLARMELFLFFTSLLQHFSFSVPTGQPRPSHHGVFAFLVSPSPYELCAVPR
Cytochrome P450 3A4, sequence (P08684 whole entry): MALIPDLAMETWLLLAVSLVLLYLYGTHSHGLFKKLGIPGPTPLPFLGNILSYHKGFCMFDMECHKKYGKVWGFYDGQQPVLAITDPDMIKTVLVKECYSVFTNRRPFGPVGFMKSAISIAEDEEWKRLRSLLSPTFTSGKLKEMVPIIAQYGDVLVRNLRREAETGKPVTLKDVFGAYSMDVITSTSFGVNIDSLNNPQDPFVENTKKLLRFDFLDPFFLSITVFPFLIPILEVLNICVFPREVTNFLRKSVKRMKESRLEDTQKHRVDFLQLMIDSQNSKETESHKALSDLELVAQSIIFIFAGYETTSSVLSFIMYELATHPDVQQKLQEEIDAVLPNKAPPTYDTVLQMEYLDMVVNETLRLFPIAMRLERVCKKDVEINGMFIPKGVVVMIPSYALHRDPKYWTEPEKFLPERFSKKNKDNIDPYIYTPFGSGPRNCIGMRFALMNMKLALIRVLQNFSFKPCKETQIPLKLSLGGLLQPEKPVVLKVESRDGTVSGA

Consider `CC(C)[C@@H](NC(=O)[C@@H]1CCC[C@@H]1O)C(=O)N1CC[C@](O)(c2ccc(Cl)cc2)C(C)(C)C1` (relative stereo), for which the Stability in data set [1] stood at 1%; in the data set on Liver microsomes [2] it was 20%; with Liver, 49%; in the data set with Liver microsomes [3], 33%. For the same compound, it took 1400 nM to reach a half-maximal effect in data set [4] (EC50). In addition, the IC50 in data set [5] is 61000 nM; in data set [6], above 80000 nM; in data set [7] it was 2.3 nM.

As to `CC(C)[C@@H](NC(=O)c1ccccc1)C(=O)N1CCC(c2ccc(Cl)cc2)CC1`, the IC50 in data set [7] is 30 nM; in data set [8], 78 nM.

In the case of `CC(C)[C@H](CN1CC[C@](O)(c2ccc(Cl)cc2)C(C)(C)C1)NC(=O)c1ccccc1`, the IC50 result in [9] was “Not Active”; in data set [7], 2240 nM.

For `CC(C)[C@@H](NC(=O)[C@@H]1CCC[C@@H]1N)C(=O)N1CC[C@](O)(c2ccc(Cl)cc2)C(C)(C)C1`, the Stability in data set [1] was 93%; in the data set with Liver microsomes [2] it was 93%; in the data set with Liver, 92%; in the data set on Liver microsomes [3] it was 94%. In data set [4], the EC50 worked out at 8500 nM. Besides, the IC50 in data set [5] is 21000 nM; in data set [6], 39000 nM; in [7] it was 2.2 nM.

For `CC(C)[C@@H](NC(=O)c1cccc(C(=O)O)c1)C(=O)N1CC[C@](O)(c2ccc(Cl)cc2)C(C)(C)C1`, the inhibition is 0% in the data set filed under Homo sapiens [10] and 3% in the data set filed under Homo sapiens [11]. Besides, the Stability is reported as 100% in data set [1], 97% in the data set on Liver microsomes [2], 100% in the data set on Liver and 100% with Liver microsomes [3]. The compound also returned an EC20 in data set [4] above 50000 nM. In data set [4], this compound displayed an EC60 above 50000 nM. The same compound displayed an IC50 in [7] of 7.1 nM.

Compound `CC(C)[C@@H](NC(=O)[C@@H]1CC[C@@H](O)C1)C(=O)N1CC[C@](O)(c2ccc(Cl)cc2)C(C)(C)C1` (mixture of isomers) came in with an inhibition at 10 µM against hERG (KCNH2) of 3%. Besides, the inhibition in the data set filed under Homo sapiens [10] was found to be 11%; in the data set listed under Homo sapiens [11], 14%. Further, the Stability in data set [1] came out at 66%; in the data set with Liver microsomes [2], 87%; in the data set on Liver it was 88%; in the data set with Liver microsomes [3], 98%. This compound also displayed an EC20 in data set [4] of 41000 nM. Besides, the EC60 in [4] is above 50000 nM. The bioavailability in data set [12] was found to be 54%; in data set [14], 100%. For the same compound, the inhibition entry in the data set listed under Homo sapiens [13] and in the data set listed under Homo sapiens [15] was “inactive” in each case. Besides, the INH in data set [16] was above 80 µM. Moreover, the “inhibition (INH)” value at Cytochrome P450 3A4, against Cytochrome P450 2C9, on Cytochrome P450 2D6, on Cytochrome P450 2C19 and on Cytochrome P450 1A2 was “Not Active” each time. The values for the IC50 in data set [17], in data set [18] and in data set [7] were 54 nM, 46 nM and 0.8 nM, respectively. The fraction unbound in data set [19] is 0.16.

For `CC(C)[C@@H](NC(=O)C1CCCC1)C(=O)N1CC[C@](O)(c2ccc(Cl)cc2)C(C)(C)C1`, the values for the inhibition in the data set listed under Homo sapiens [10] and in the data set listed under Homo sapiens [11] were 50% and 52%, respectively. In addition, the Stability amounted to 4% in data set [1], 50% with Liver microsomes [2], 26% in the data set with Liver and 47% with Liver microsomes [3]. This compound also returned an EC20 in data set [4] of 400 nM. In addition, the EC60 in [4] was 1400 nM. For the same compound, the IC50 in [7] was 1.4 nM.

As for `CC(C)[C@@H](NC(=O)c1cccc(S(N)(=O)=O)c1)C(=O)N1CC[C@](O)(c2ccc(Cl)cc2)C(C)(C)C1`, the inhibition in the data set filed under Homo sapiens [10] was determined as 31%; in the data set listed under Homo sapiens [11] it was 39%. The Stability turned out to be 100% in data set [1], 100% in the data set on Liver microsomes [2], 99% in the data set on Liver and 96% in the data set with Liver microsomes [3]. Also, the EC20 in data set [4] was above 50000 nM. For the same compound, in [4], the EC60 is above 50000 nM. The same compound had an IC50 in data set [7] of 3 nM.
